# From ChEMBL document CHEMBL5335839, “Synthesis and structure-activity relationship of novel thiazole aminoguanidines against MRSA and Escherichia coli” (RSC Med Chem, 2024)
# Calls of active or inactive are those of the source. The rule behind the calls is not given here.
# Key:
# [1] = test system: Escherichia coli; assay: Ratio of MBC to MIC against Escherichia coli ATCC 8739 measured after 24 hrs; type: functional
# [2] = test system: Staphylococcus aureus; assay: Antibacterial activity against methicillin resistant Staphylococcus aureus ATCC 33591 incubated for 24 hrs by broth dilution method; type: functional
# [3] = test system: Staphylococcus aureus; assay: Ratio MBC to MIC against Staphylococcus aureus ATCC 6538P measured after 24 hrs; type: functional
# [4] = Hemolytic activity in rabbit RBC assessed as hemolysis rate at 10 times MIC incubated for 3 hrs by ultraviolet spectrophotometry analysis relative to control; type: toxicity, cell-based, Oryctolagus cuniculus, Erythrocyte; settings: rabbit red blood cells (erythrocytes), read-out: Activity
# [5] = test system: Staphylococcus aureus; assay: Antibacterial activity against Staphylococcus aureus ATCC 6538P incubated for 24 hrs by broth microdilution method; type: functional
# [6] = test system: Escherichia coli; assay: Antibacterial activity against Escherichia coli ATCC 8739 incubated for 24 hrs by broth microdilution method; type: functional
# [7] = test system: Staphylococcus aureus; assay: Bactericidal activity against methicillin resistant Staphylococcus aureus ATCC 33591 at 1 times MIC measured after 4 hrs by time kill assay; type: functional
# [8] = test system: Staphylococcus aureus; assay: Anti-biofilm activity against methicillin resistant Staphylococcus aureus ATCC 33591 assessed as biofilm eradication incubated for 24 hrs by crystal violet staining based assay; type: functional, organism-based
# [9] = test system: Escherichia coli; assay: (§1) Inhibition of Escherichia coli ATCC 8739 UPPS using farnesyl pyrophosphate and isopentenyl pyrophosphate as a substrates preincubated for 30 min followed by EcPPA addition and measured after 30 min by malachite green dye based absorbance analysis; settings: time 60.0 min
# [10] = as §1
# [11] = test system: Staphylococcus aureus; assay: Potency index, ratio of norfloxacin MIC to test compound MIC for antibacterial activity against methicillin resistant Staphylococcus aureus ATCC 33591 incubated for 24 hrs by broth dilution method; type: functional
# [12] = test system: Staphylococcus aureus; assay: Bactericidal activity against methicillin resistant Staphylococcus aureus ATCC 33591 at 2 to 4 times MIC measured after 2 hrs by time kill assay; type: functional
# [13] = test system: Staphylococcus aureus; assay: Ratio MBC to MIC methicillin resistant Staphylococcus aureus ATCC 33591 measured after 24 hrs; type: functional
# [14] = Hemolytic activity in rabbit RBC assessed as hemolysis rate at 8 times MIC incubated for 3 hrs by ultraviolet spectrophotometry analysis relative to control; type: toxicity, cell-based, Oryctolagus cuniculus, Erythrocyte; settings: rabbit red blood cells (erythrocytes), read-out: Activity
# [15] = Hemolytic activity in rabbit RBC assessed as hemolysis rate at 2 times MIC incubated for 3 hrs by ultraviolet spectrophotometry analysis relative to control; type: toxicity, cell-based, Oryctolagus cuniculus, Erythrocyte; settings: rabbit red blood cells (erythrocytes), read-out: Activity
# [16] = test system: Staphylococcus aureus; assay: Inhibition of biofilm formation in methicillin resistant Staphylococcus aureus ATCC 33591 at 0.25 times MIC incubated for 24 hrs by crystal violet staining based assay relative to control; type: functional
# [17] = Hemolytic activity in rabbit RBC assessed as hemolysis rate at 6 times MIC incubated for 3 hrs by ultraviolet spectrophotometry analysis relative to control; type: toxicity, cell-based, Oryctolagus cuniculus, Erythrocyte; settings: rabbit red blood cells (erythrocytes), read-out: Activity
# [18] = test system: Staphylococcus aureus; assay: Induction of resistance development in methicillin resistant Staphylococcus aureus ATCC 33591 assessed as fold increase in MIC incubated for 24 hrs and measured at 10th generation relative to first generation; type: functional
# [19] = Hemolytic activity in rabbit RBC assessed as hemolysis rate at 4 times MIC incubated for 3 hrs by ultraviolet spectrophotometry analysis relative to control; type: toxicity, cell-based, Oryctolagus cuniculus, Erythrocyte; settings: rabbit red blood cells (erythrocytes), read-out: Activity
# [20] = test system: Staphylococcus aureus; assay: Inhibition of biofilm formation in methicillin resistant Staphylococcus aureus ATCC 33591 at 0.5 times MIC incubated for 24 hrs by crystal violet staining based assay relative to control; type: functional
# [21] = test system: Staphylococcus aureus; assay: Anti-biofilm activity against methicillin resistant Staphylococcus aureus ATCC 33591 assessed as biofilm eradication at MIC incubated for 24 hrs by crystal violet staining based assay relative to control; type: functional
# [22] = test system: Escherichia coli; assay: Noncompetitive inhibition of Escherichia coli ATCC 8739 UPPS using varying concentrations of farnesyl pyrophosphate as substrate assessed as decrease in Vmax with constant Km at 0 to 64 microg/mL incubated for 30 mins by Lineweaver-Burk plot analysis; settings: dose 0-64 µg/ml
# [23] = test system: Staphylococcus aureus; assay: Bactericidal activity against methicillin resistant Staphylococcus aureus ATCC 33591 at 1 to 4 times MIC incubated for 24 hrs by time kill assay; type: functional, organism-based
SMILES,Ratio [1],MIC [2] [µg/mL],Ratio [3],"hemolysis at 3 h, 10 x MIC [4] [%]",MIC [5] [µg/mL],MIC [6] [µg/mL],Ratio [11],Ratio [13],also measured
C/C(=N\NC(=N)N)c1sc(N/N=C/C=C/c2c(F)cccc2F)nc1C,1,32,1,< 5,128,32,,,
C/C(=N\NC(=N)N)c1sc(N/N=C/c2ccc(-n3cncn3)cc2)nc1C,,> 128,,< 5,> 128,> 128,,,
C/C(=N\NC(=N)N)c1sc(N/N=C/c2ccc(-c3cccs3)s2)nc1C,1,8,2,3.3,2,8,8,1,"Activity [7]: 100%; Activity [8]: Dose-Dependent Effect; inhibition [9]: Dose-Dependent Effect; IC50 [10]: 145 µM; Activity [12]: 100%; hemolysis at 3 h, 8 x MIC [14]: 1.3%; hemolysis at 3 h, 2 x MIC [15]: 2.6%; inhibition (INH) [16]: 44%; hemolysis at 3 h, 6 x MIC [17]: 1.7%; fold change (FC) [18]: 2; hemolysis at 3 h, 4 x MIC [19]: 2.1%; inhibition (INH) [20]: 59%; Activity [21]: 70%; inhibition [22]: Dose-Dependent Effect"
C/C(=N\NC(=N)N)c1sc(N/N=C/c2cccc(O)c2)nc1C,1,32,2,< 5,8,32,,1,
CCn1cc(C(=O)O)c(=O)c2cc(F)c(N3CCNCC3)cc21 [NORFLOXACIN],>8,64,1,,0.25,0.12,,>2,Activity [23]: inactive; fold change (FC) [18]: 4
C/C(=N\NC(=N)N)c1sc(N/N=C/c2cncs2)nc1C,2,64,>2,< 5,64,64,,2,
C/C(=N\NC(=N)N)c1sc(N/N=C/c2cccc(F)c2F)nc1C,2,16,2,< 5,16,64,,1,
C/C(=N\NC(=N)N)c1sc(N/N=C/c2ccc(N3CCCC3)cc2)nc1C,4,32,1,< 5,32,32,,,
C/C(=N\NC(=N)N)c1sc(N/N=C/c2ccccc2F)nc1C,1,8,1,< 5,16,16,8,,
C/C(=N\NC(=N)N)c1sc(N/N=C/c2ccc(O)cc2)nc1C,1,128,2,< 5,32,64,,>1,
C/C(=N\NC(=N)N)c1sc(N/N=C/c2ccc(-c3ccc(F)cc3)cc2)nc1C,4,4,1,< 5,4,16,16,,
C/C(=N\NC(=N)N)c1sc(N/N=C/c2ccccc2O)nc1C,1,64,1,< 5,32,64,,,
C/C(=N\NC(=N)N)c1sc(N/N=C/c2cc(O)cc(O)c2)nc1C,1,64,1,< 5,32,32,,,
COc1ccc(-c2ccc(/C=N/Nc3nc(C)c(/C(C)=N/NC(=N)N)s3)cc2)cc1,>1,32,>1,< 5,32,128,,1,
C/C(=N\NC(=N)N)c1sc(N/N=C/c2ccc(-c3ccc(C(F)(F)F)cc3)cc2)nc1C,1,8,1,< 5,16,8,8,,
C/C(=N\NC(=N)N)c1sc(N/N=C/c2cc(F)ccc2F)nc1C,1,8,1,< 5,8,16,8,,
